From PubChem BioAssay AID2060893 (Molecular Pharmacology Branch, DTP, NCI, 2025)

Test system: K86415-001-R-J1-PDC complex spheroids, viability
Assay: Anticancer human tumor K86415-001-R-J1-PDC patient-derived lung adenocarcinoma cell line growth inhibition [RAS]
Details: for IC50: curve of first compound; for viability, T/C: stronger effect = lower value
Text: RAS pathway inhibitors in Combinations in Complex Spheroids
A high-throughput screen of multi-cell type tumor spheroids was designed to identify active combinations of RAS pathway inhibitors and targeted small molecules. Complex spheroids include a stromal component modeled by human endothelial cells (HUVEC) and fibroblasts modeled by human mesenchymal stem cells (MSCs). The concentration ranges selected for each drug and investigational agent were based upon clinically achievable concentrations if the clinical Cmax of the agent was known.
Compounds. The drugs and investigational agents: abemaciclib (NSC768073), cobimetinib (NSC768068), divarasib (GDC6063, NSC841802), docetaxel (NSC628503), GDC-1971 (RLY-1971, NSC841576), gemcitabine (NSC613327), inavolisib (NSC800729), ipatasertib (NSC767898), KB-0742 (NSC834161), MRTX-1133 (NSC836407), osimertinib (NSC779217), RMC-4630 (NSC839698), RMC-6236 (NSC851965), RMC-6291 (NSC852671), Ro-3306 (NSC812927), sapanisertib (NSC764658), SN-38 (NSC673596), staurosporine (NSC755774), SY5609 (NSC837396), and tovorafenib (DAY101, NSC766906), were obtained from the National Cancer Institute (NCI) Developmental Therapeutics Program Chemical Repository. The FDA-approved anticancer drug set is available from the NCI Developmental Therapeutics Program. […] The stock solutions were prepared in dimethyl sulfoxide (DMSO, Sigma-Aldrich, St. Louis, MO, cat. D2650) at 800-fold the tested concentration and stored at -70 degrees C prior to their use. All drugs and investigational agents were tested over a range starting from a high concentration at or near the clinical Cmax and decreasing in half-log increments. If the clinical Cmax for an agent had not been determined, the highest concentration tested was 10 microM.
Cell Culture. All cells were maintained in an incubator at 37 degrees C and 5% CO2 with 95% humidity. The PDC lines were cultured according to standard operating procedures established by the NCI PDMR. All PDCs were thawed and cultured in Matrigel-coated flasks prepared with a working solution of 1X Ham's F-12 nutrient mix, without supplementation (Invitrogen, Waltham, MA, cat. 11765054), 100 U/mL penicillin-streptomycin (Invitrogen, cat. 15140122), and 2.5% Matrigel (Corning Inc., Corning, NY, cat. 354248) for the first three passages. The 362531-283-R-J2-PDC and 782815-120-R-J1-PDC lines were cultured in 6C/Colon 1B media, which includes advanced DMEM/F-12 (Thermo Fisher Scientific, cat. 12634028), 10 mM HEPES (Thermo Fisher Scientific, cat. 15630080), 1X GlutaMAX supplement (Thermo Fisher Scientific, cat. 35050061), 0.1 mg/mL primocin (InvivoGen, San Diego, CA, cat. ant-pm-2), 10% defined fetal bovine serum, heat inactivated (HyClone Laboratories Inc., Logan, UT, cat. SH30070.03HI), 50% L-WRN conditioned media (ATCC, cat. CRL-3276), 1.25 mM N-Acetyl-L-cysteine (Sigma-Aldrich, cat. A9165), 10 mM nicotinamide (Sigma-Aldrich, cat. N0636), 1X B-27 supplement (Thermo Fisher Scientific, cat. 17504044), 1X N-2 supplement (Thermo Fisher Scientific, cat. 17502048), 50 ng/mL human EGF (Thermo Fisher Scientific, cat. PHG0311), and 10 microM Y-27632 dihydrochloride (Tocris Bioscience, cat. 1254). The K12877-001-R-J1-PDC line was cultured in 6I media, which includes all 6C/Colon 1B media plus 10 ng/mL human FGF-10 (PeproTech, cat. 100-26), 1 ng/mL human FGF-2 (PeproTech, cat. 100-18B), 1 µM prostaglandin E2 (Tocris Bioscience, cat. 2296), […] hydrocortisone (Sigma-Aldrich, cat. H4001), and […] bovine insulin (Sigma-Aldrich, cat. I6634). The K86415-001-R-J1-PDC line was cultured in 6D media, which includes all 6C/Colon 1B media components minus the L-WRN conditioned media. The 485176-168-R4-J1-PDC was cultured in PANC media, which includes all 6C/Colon 1B media plus 100 ng/mL human FGF-10 (PeproTech, cat. 100-26), 500 nM SB-431542 (Selleckchem, cat. S1067), and 10 nM gastrin (Tocris Bioscience, cat. 3006). […]

[1] = second compound 0.0316 µM, first compound 0.0316 µM
[2] = second compound 0.0316 µM, first compound 0.1 µM
[3] = second compound 0.0316 µM, first compound 0.316 µM
[4] = second compound 0.0316 µM, first compound 1 µM
[5] = second compound 0.1 µM, first compound 0.0316 µM
[6] = second compound 0.1 µM, first compound 0.1 µM
[7] = second compound 0.1 µM, first compound 0.316 µM
[8] = second compound 0.1 µM, first compound 1 µM
[9] = second compound 0.316 µM, first compound 0.0316 µM
[10] = second compound 0.316 µM, first compound 0.1 µM
[11] = second compound 0.316 µM, first compound 0.316 µM
[12] = second compound 0.316 µM, first compound 1 µM
[13] = second compound 1 µM, first compound 0.0316 µM
[14] = second compound 1 µM, first compound 0.1 µM
[15] = second compound 1 µM, first compound 0.316 µM
[16] = second compound 1 µM, first compound 1 µM
[17] = second compound 3.16 µM, first compound 0.0316 µM
[18] = second compound 3.16 µM, first compound 0.1 µM
[19] = second compound 3.16 µM, first compound 0.316 µM
[20] = second compound 3.16 µM, first compound 1 µM
[21] = second compound 10 µM, first compound 0.0316 µM
[22] = second compound 10 µM, first compound 0.1 µM
[23] = second compound 10 µM, first compound 0.316 µM
[24] = second compound 10 µM, first compound 1 µM
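Note: spheroids exposed to agents for seven days before readout.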

## CCN1CCN(Cc2ccc(Nc3ncc(F)c(-c4cc(F)c5nc(C)n(C(C)C)c5c4)n3)nc2)CC1 + C#Cc1c(F)ccc2cc(O)cc(-c3ncc4c(N5CC6CCC(C5)N6)nc(OCC56CCCN5CC(F)C6)nc4c3F)c12
Second compound 0.0316 µM
  IC50: > 1000 nM
Second compound 0.1 µM
  IC50: > 1000 nM
Second compound 0.316 µM
  IC50: > 1000 nM
Second compound 1 µM
  IC50: 27.1 nM
Second compound 3.16 µM
  IC50: < 3.16 nM
Second compound 10 µM
  IC50: < 3.16 nM
Second compound 0.0316 µM, first compound 0.00316 µM
  viability, T/C: 93.1%
Second compound 0.0316 µM, first compound 0.01 µM
  viability, T/C: 89%
[1]
  viability, T/C: 77.4%
[2]
  viability, T/C: 67.5%
[3]
  viability, T/C: 66.3%
[4]
  viability, T/C: 67.4%
Second compound 0.1 µM, first compound 0.00316 µM
  viability, T/C: 90.9%
Second compound 0.1 µM, first compound 0.01 µM
  viability, T/C: 80.5%
[5]
  viability, T/C: 72.3%
[6]
  viability, T/C: 61.7%
[7]
  viability, T/C: 57.4%
[8]
  viability, T/C: 70.7%
Second compound 0.316 µM, first compound 0.00316 µM
  viability, T/C: 92%
Second compound 0.316 µM, first compound 0.01 µM
  viability, T/C: 79.3%
[9]
  viability, T/C: 67.1%
[10]
  viability, T/C: 55.8%
[11]
  viability, T/C: 50.3%
[12]
  viability, T/C: 61%
Second compound 1 µM, first compound 0.00316 µM
  viability, T/C: 62%
Second compound 1 µM, first compound 0.01 µM
  viability, T/C: 54.7%
[13]
  viability, T/C: 49%
[14]
  viability, T/C: 44.5%
[15]
  viability, T/C: 45.2%
[16]
  viability, T/C: 53.5%
Second compound 3.16 µM, first compound 0.00316 µM
  viability, T/C: 39.5%
Second compound 3.16 µM, first compound 0.01 µM
  viability, T/C: 34.9%
[17]
  viability, T/C: 28.4%
[18]
  viability, T/C: 26.1%
[19]
  viability, T/C: 30.9%
[20]
  viability, T/C: 38.9%
Second compound 10 µM, first compound 0.00316 µM
  viability, T/C: 14.3%
Second compound 10 µM, first compound 0.01 µM
  viability, T/C: 15.6%
[21]
  viability, T/C: 14.1%
[22]
  viability, T/C: 19%
[23]
  viability, T/C: 22.1%
[24]
  viability, T/C: 22.2%

## C[C@@H](NC(=O)c1ncnc(N)c1Cl)c1ncc(C(=O)Nc2cc(C(F)(F)F)c(Cl)cn2)s1 + C#Cc1c(F)ccc2cc(O)cc(-c3ncc4c(N5CC6CCC(C5)N6)nc(OCC56CCCN5CC(F)C6)nc4c3F)c12
Second compound 0.0316 µM
  IC50: > 10000 nM
Second compound 0.1 µM
  IC50: > 10000 nM
Second compound 0.316 µM
  IC50: > 10000 nM
Second compound 1 µM
  IC50: 7330 nM
Second compound 3.16 µM
  IC50: 183 nM
Second compound 10 µM
  IC50: < 31.6 nM
[1]
  viability, T/C: 107%
[2]
  viability, T/C: 115%
[3]
  viability, T/C: 104%
[4]
  viability, T/C: 81.1%
Second compound 0.0316 µM, first compound 3.16 µM
  viability, T/C: 61.1%
Second compound 0.0316 µM, first compound 10 µM
  viability, T/C: 56.5%
[5]
  viability, T/C: 113%
[6]
  viability, T/C: 112%
[7]
  viability, T/C: 93%
[8]
  viability, T/C: 79.9%
Second compound 0.1 µM, first compound 3.16 µM
  viability, T/C: 67.5%
Second compound 0.1 µM, first compound 10 µM
  viability, T/C: 56.8%
[9]
  viability, T/C: 119%
[10]
  viability, T/C: 108%
[11]
  viability, T/C: 88.8%
[12]
  viability, T/C: 79.8%
Second compound 0.316 µM, first compound 3.16 µM
  viability, T/C: 65.5%
Second compound 0.316 µM, first compound 10 µM
  viability, T/C: 53.6%
[13]
  viability, T/C: 83.9%
[14]
  viability, T/C: 85.9%
[15]
  viability, T/C: 69.1%
[16]
  viability, T/C: 69%
Second compound 1 µM, first compound 3.16 µM
  viability, T/C: 59.7%
Second compound 1 µM, first compound 10 µM
  viability, T/C: 46.3%
[17]
  viability, T/C: 46.9%
[18]
  viability, T/C: 53.5%
[19]
  viability, T/C: 52.3%
[20]
  viability, T/C: 42.6%
Second compound 3.16 µM, first compound 3.16 µM
  viability, T/C: 38.4%
Second compound 3.16 µM, first compound 10 µM
  viability, T/C: 30.2%
[21]
  viability, T/C: 19.5%
[22]
  viability, T/C: 26%
[23]
  viability, T/C: 23.1%
[24]
  viability, T/C: 18.2%
Second compound 10 µM, first compound 3.16 µM
  viability, T/C: 19.6%
Second compound 10 µM, first compound 10 µM
  viability, T/C: 15.3%
